Data: US7521071B2, “Formulation of oral compositions comprising arsenic trioxide and methods of use thereof” (Versitech Limited, priority 2002, dated 2009)
Marks after values point to notes of the source that are not given here.

How the values were obtained:
[1] = system: acute promyelocytic leukemia (APL); conditions: cited from earlier work
[2] = Oral arsenic bioavailability: plasma and whole blood arsenic AUC after IV (day 1) and oral (day 2) As2O3; type: in vivo, human patients
Protocol: As diets containing seafood contain arsenic, each patient was instructed to refrain from seafood, preferably for at least one week before arsenic administration. On day-1 at 10 A.M., 10 mg of a standard, commercially available IV As2O3 formulation (from Ophthalmic Laboratories, Sydney, Australia) diluted in 100 ml of Sodium Chloride 0.9% solution was infused IV over 60 minutes. At 10 A.M. on day-2 (i.e., 24 hours after the start of the IV infusion), each patient swallowed a 10 mg dose (10 ml) of our oral AS2O3 solution and none were instructed to fast before or during their treatment.
Venous blood samples were drawn (11 ml) prior to As2O3 administration on day-1 and subsequently at the following times after the beginning of the IV infusion: 1, 2, 3, 4, 6, 8, 24, 25, 26, 27, 28, 30, 32 and 48 hours. […] The plasma from the lithium-heparin tube was freshly separated and both the plasma and whole blood samples were stored at 4° C. and subsequently analyzed in batches.
Plasma and whole blood arsenic concentration were assayed after the samples were deproteinized with 3% (w/v) trichloroacetic acid and then mixed with matrix modifiers. […] Concentrations are therefore expressed as nmol/L of arsenic above basal values. […]

[3] = Arsenic in plasma and cellular fraction of blood at 48 hours; type: in vivo, human patients
Protocol: Venous blood samples were drawn (11 ml) prior to As2O3 administration on day-1 and subsequently at the following times after the beginning of the IV infusion: 1, 2, 3, 4, 6, 8, 24, 25, 26, 27, 28, 30, 32 and 48 hours. Five ml from each sample were collected in a non-gel lithium-heparin tube (for determination of plasma arsenic level) and 3 ml×2 in EDTA tubes (for determination of whole blood level). The plasma from the lithium-heparin tube was freshly separated and both the plasma and whole blood samples were stored at 4° C. and subsequently analyzed in batches.
Plasma and whole blood arsenic concentration were assayed after the samples were deproteinized with 3% (w/v) trichloroacetic acid and then mixed with matrix modifiers. The matrix modifiers contained magnesium nitrate (10 g/L), palladium chloride (6 g/L), and ammonium sulphite (20 g/L) in 0.5% Triton X 100. All chemicals were of analytical grade and were obtained from Sigma (St Louis, Mo.). The treated samples were assayed for total arsenic concentration in whole blood and plasma (which includes As2O3 per se and its metabolites) by graphite furnace atomic absorption spectrophotometry (Simma 6000, Perkin-Elmer, Norwalk, Conn.). Concentrations are therefore expressed as nmol/L of arsenic above basal values. The between-day coefficient of variation of this method was 7.5-9.6% for arsenic concentrations varying from 559 to 2169 nmol/L. The accuracy of this method was assessed by spiking known amounts of arsenic into patient samples; recovery being 97.3-101.3% for concentrations varying from 301 to 678 nmol/L.
The concentration of arsenic in the cellular fraction of blood (Cc) at 48 hours after the initial intravenous dose was calculated from the corresponding plasma (Cp) and whole blood (Cb) concentrations and the prevailing hematocrit (Hct) value as follows:
Nano mols of arsenic in the plasma from 1 liter of blood=Cp(1-Hct).
Accordingly, the mass of arsenic in the remaining cellular fraction in 1 liter of blood amounts to Cb-[Cp(1-Hct)].
Thus, the concentration (weight/volume) of arsenic per liter of the cellular fraction of the blood Cc={Cb-[Cp(1-Hct)]}/Hct.

[4] = Safety monitoring in Example 1 (ECG, complications); type: in vivo, human patients
Protocol: Demographic features as well as details pertaining to each patient's disease state (including laboratory findings) were recorded throughout the period of study. Their subsequent clinical progress and pertinent laboratory results were also logged. The University of Hong Kong Faculty of Medicine Ethics Committee approved the entire protocol.
The demographic features, basal arsenic concentrations, disease status, and treatment outcomes of each patient are shown in Table 2.

PML/RARA = assay: Molecular monitoring of PML/RARA (PCR) in Example 2; type: in vivo, human patients
Protocol: Twelve consecutive unselected patients with relapsed APL were treated with oral-As2O3 (see Table 4). The relapse was confirmed morphologically (>30% blasts+abnormal promyelocytes in the marrow) and cytogenetically (presence of t(15;17), with none of the cases showing additional karyotyic aberrations) or molecularly (presence of PML/RARA). The treatment was given with informed consent, and the protocol was approved by the University of Hong Kong Faculty of Medicine Ethics Committee.
However, PML/RARA became negative in 11 cases 3-6 months post-remission, and remained negative until the latest bone marrow examination. PCR in patient no. 1 became positive shortly before R2.

[5] = As2O3 powder; cited from earlier work

| Compound | efficacy in APL ([1]; oral, Lu et al. Blood 2002) | inter-individual variation in plasma AUCs among the nine patients ([2]; plasma) [fold] | inter-individual variation in whole blood AUCs among the nine patients ([2]; whole blood) [fold] | Cellular Conc (Cc), Mean ([3]; 48 hours, mean of 9 patients) [nM/L] | Plasma Conc (Cp), Mean ([3]; 48 hours, mean of 9 patients) [nM/L] | Difference, Mean ([3]; 48 hours, mean of 9 patients, p = 0.013 two tailed paired t-test) | 48-hour concentrations in the cellular fraction of blood higher than corresponding plasma concentrations ([3]; except in patient no 1) [fold] | 48-hour blood cell arsenic levels greater than in plasma ([3]; on average, p=0.013) [%] | abnormal QTc prolongation on regularly performed ECGs ([4]; all nine patients receiving As2O3) | unexpected complications ([4]; nine patients) | cases in which PML/RARA became negative (PML/RARA; 3-6 months post-remission, of 12 patients) [cases] | PML/RARA after As2O3-induced CR (PML/RARA; all patients) | solubility in cold water [5] | remissions induced in APL patients ([1]; literature (Shen 1997, Soignet 1998, Niu 1999)) |
| --- | --- | --- | --- | --- | --- | --- | --- | --- | --- | --- | --- | --- | --- | --- |
| S1[As]2S[As]3S[As]2S[As]13 [tetra-arsenic tetra-sulphide] | highly efficacious in APL |  |  |  |  |  |  |  |  |  |  |  |  |  |
| arsenic trioxide [As2O3] |  | ≤ 5 | ≤ 10 | 286 | 85 | 201* nM/L | 2 to 3 | 270 | no instance of abnormal QTc prolongation | No patient suffered unexpected complications | 11 | remained positive in all patients | sparingly and extremely slowly soluble | over 90% |
